Broadly, the LD50 is the dose expected to kill half of the subjects tested. A lower LD50 goes with greater toxicity.

Entries after “also recorded” stand apart in the source; their conditions may differ. Counter-ions that a name gives are not always drawn.

Data set [1] concerns mice. The data set is described as follows: Traction test (mice), myorelaxant activity. The conditions noted are these: Mus musculus, po, read-out: Traction, 50% effective dose. It counts as in vivo. The text has this:
This consists in observing when the treated animals are capable of retrieving a rod grasped by the front paws only. Inability to carry this out was interpreted as a sign of myorelaxant activity.

Data set [2] has as its system mice. The experiment in a line: Balance test: rotating rod (mice) (Equilibration). It counts as in vivo. The conditions noted are these: Mus musculus, po, read-out: Equilibration, 50% effective dose. The text has this: 2. Balance test: rotating rod (mice)
This test consists in observing whether the treated animals are capable of maintaining their balance on a horizontal rod kept in rotation.
Numerous neuroleptic compounds or tranquilizers disturb the equilibration reflex.

Data set [3] relates to mice. The experiment in a line: Anti-convulsant activity (anti-pentetrazole) (mice). It is filed as in vivo. The conditions noted are these: mouse, PO; pentetrazole 125 mg./kg. IP; read-out: Anti-pentetrazole, 50% effective dose. The method, then:
3. Anti-convulsant activity (anti-pentetrazole) (mice)
Pentetrazole, injected intraperitoneally in a dose of 125 mg./kg. produces fatal convulsions in 100% of the animals.
Certain compounds exert a protective action preventing convulsions and permitting survival.

The subject of data set [4] is mice. The data set is described as follows: Anti-convulsant activity (electric shock) (mice). It counts as in vivo. The conditions noted are these: Mus musculus, po, read-out: Electric shock, 50% effective dose. An excerpt: 4. Anti-convulsant activity (electric shock) (mice)
The test consists in determining the intensity of the electric current required to produce a fatal shock in a batch of test animals.
Certain preventively administered compounds effectively protect a certain percentage of animals subjected to an electric current of an intensity which is fatal to untreated animals.

Data set [5] deals with mice. The experiment in a line: Exploration test (mice). It is filed as in vivo. The conditions noted are these: Mus musculus, read-out: Exploration, 50% effective dose. The method, then: 5. Exploration test (mice)
This extremely simple test consists in placing a mouse at the center of a floor pierced with holes and in noting how many holes the mouse explores in 5 minutes. This test is carried out in a room in which complete silence is observed and which contains no person except the experimenter who is seated and still. It appeals to the curiosity of the animals. The doses of the compounds employed are, however, very small and considerably less than those required to impair movement. This simple test makes it possible to observe whether the compounds assayed produce a more or less pronounced lack of interest in the environment and it gives information which is interesting from the clinical point of view with regard to the treatment of anxiety and restlessness.

Data set [6] deals with rat. The data set is described as follows: Spontaneous motor activity in the rat. It is filed as in vivo. The conditions noted are these: Rattus norvegicus, po, read-out: Spontaneous motor activity, 50% effective dose. The text has this: (§1) 6. Spontaneous motor activity in the rat and mouse and provoked motor activity
(§2) The effect of drugs on voluntary movements of animals can be studied statistically by methods, the details of which will not be discussed here. The mouse, which is an extremely lively animal and moves about a great deal, is particularly suitable for this type of experiment.

Data set [7] concerns mouse. The data set is described as follows: Spontaneous motor activity in the mouse. It counts as in vivo. The conditions noted are these: Mus musculus, po, read-out: Spontaneous motor activity, 50% effective dose.
Text: as §1, §2

Data set [8] deals with rat. The data set is described as follows: Benzedrine provoked motor activity (R). It counts as in vivo. The conditions noted are these: PO, read-out: Benzedrine provoked motor activity, 50% effective dose.
Text: as §1, §2
Moreover, this spontaneous mobility can be exacerbated by preventive administration to the animals of certain substances such as benzedrine, mescaline and ritaline.
The experimental results obtained by these methods give valuable information for clinical purposes with regard to the treatment of ambulatory psychomotor crises.

The nature of a further data set: Acute toxicity (M) LD 50. The conditions noted are these: in vivo, mouse.
The next data set has as its system cat. The data set is described as follows: Morphine crisis (C). It counts as in vivo. The conditions noted are these: Felis catus, SC, read-out: Morphine crisis, 50% effective dose. An excerpt: In the cat, morphine produces a specific state of excitation with hallucinations which can be attenuated or suppressed by certain psycholeptic drugs.
The test system of another data set is male rat. The experiment in a line: Combativeness (rat). It counts as in vivo. The conditions noted are these: for ED50: rat, PO, read-out: Combativeness, 50% effective dose. An excerpt:
It is possible to make a male rat aggressive towards another male rat enclosed in the same cage by passing an electric current of more or less high voltage through the floor of the cage.
This test, like the preceding one, can obviously give information of clinical value for the treatment of aggression diseases.

Data set [9] in a line: Reaction (pH) of aqueous solution. It counts as physicochemical.
The subject of data set [10] is mouse. The data set is described as follows: Antistrychnine activity. It counts as in vivo. The conditions noted are these: po, read-out: Anti-strychnine, 50% effective dose. The text has this: 7. Antistrychnine activity
The subject of the next data set is cats. The data set is described as follows: Aggressiveness (cat/mouse). It is filed as in vivo. The conditions noted are these: Felis catus, SC, read-out: Aggressiveness, 50% effective dose. The text has this: 9. Aggressiveness (cat/mouse)
In general, 75 to 80% of cats are aggressive when confronted with white mice. Psycholeptics and tranquilizers may make the cat indifferent and sometimes even amiable to the mouse. Similarly, in the case of cats that are furious and aggressive in relation to humans, diminution or suppression of the instinctive fear and establishment of a climate of confidence are observed.

The next data set deals with central nervous system. The experiment in a line: Pharmacodynamic / central nervous system tests taken together. It is filed as in vivo. An excerpt:
A certain number of the compounds described in the present application have been studied with regard to their action on the central nervous system, as psycholeptics, myorrelaxants and tranquilizers. In addition, the acute toxicity has been determined for a number of these compounds.
It has thereby been possible to make quantitative comparisons of the activity of the different compounds for the different tests employed.

For the compound `CCOC(=O)C1N=C(c2ccccc2)c2cc(Cl)ccc2NC1=O` (stereo not drawn) [4279 CB, 7-Chloro-3-carbethoxy-5-phenyl-2-oxo-2,3-dihydro-1H-benzo[f]-1,4-diazepine], the ED50 with mice [1] was found to be 8 mg/kg; in the data set with mice [2], 50 mg/kg; with mice [3], 10 mg/kg; with mice [4], 25 mg/kg; in the data set on mice [5] (po), 25 mg/kg; in the data set with rat [6] it was 100 mg/kg. Moreover, the figures for the ED50 in the data set with mouse [7] and in the data set on rat [8] were 100 mg/kg and over 100 mg/kg, respectively.

On to `CCN(CC)CCNC(=O)C1N=C(c2ccccc2)c2cc(Cl)ccc2NC1=O` (stereo not drawn) [4369 CB, 7-Chloro-3-(2-diethylamino-ethylaminocarbonyl)-5-phenyl-2-oxo-2,3-dihydro-1H-benzo[f]-1,4-diazepine], for which the ED50 with mice [1] was over 25 mg/kg; in the data set on mice [2], over 50 mg/kg; in the data set with mice [3] it was over 50 mg/kg; in the data set on mice [4] it was over 20 mg/kg; in the data set with mice [5] (po), over 20 mg/kg; with mouse [7], over 10 mg/kg.

On to `CNC1=Nc2ccc(Cl)cc2C(c2ccccc2)=[N+]([O-])C1` [Chlordiazepoxide, reference compound], for which the LD50 worked out at 80 mg/kg in the data set “Acute toxicity (M) LD 50” (IP) and 200 mg/kg in “Acute toxicity (M) LD 50” (PO). Moreover, the ED50 is 3 mg/kg in the data set with mice [1]; 13 mg/kg with mice [2]; 5 mg/kg in the data set with mice [3]; 17 mg/kg with mice [4]; 20 mg/kg in the data set on mice [5] (po); over 100 mg/kg with rat [8]. Also, the ED50 in the data set with cat and with male rat was 100 mg/kg throughout.

For the compound `Cc1ccc2c(c1)C(c1ccccc1)=NC(C(=O)O)C(=O)N2` (stereo not drawn) [4373 CB, 3-[7-methyl-5-phenyl-2-oxo-2,3-dihydro-1H-benzo[f]-1,4-diazepine]-carboxylic acid, potassium salt], the Solubility in water entry in the data set “Solubility” is given as “completely soluble in water”.

`NC(=O)C(N=C(c1ccccc1)c1cc(Cl)ccc1N)C(=O)O` (stereo not drawn) [4349 CB, Potassium salt of 4-phenyl-4-(2-amino-5-chlorophenyl)-2-carbamoyl-3-aza-3-butenoic acid]: the ED50 in the data set with mice [1] was 10 mg/kg; in the data set with mice [2] it was over 10 mg/kg; in the data set with mice [3], over 10 mg/kg; in the data set with mice [4], over 10 mg/kg; in the data set on mice [5] (po), 10 mg/kg; with mouse [7] it was 10 mg/kg. Also, in the data set “Solubility”, the Solubility in water entry is given as “completely soluble in water”.

In the case of `Nc1ccc2c(c1)C(c1ccccc1)=NC(C(=O)O)C(=O)N2.[K+].[K+].[OH-].[OH-]` (stereo not drawn) [4371 CB, 7-Amino-2,3-dihydro-2-oxo-5-phenyl-1H-benzo[f]-1,4-diazepine-3-carboxylic acid, monopotassium salt, monopotassium hydroxide], the “Reaction / pH of aqueous solution” value in data set [9] is reported as “strongly alkaline reaction”. For the same compound, in “Solubility”, the Solubility in water result was “completely soluble in water”.

For `O=C(O)C1N=C(c2ccccc2)c2ccccc2NC1=O` (stereo not drawn) [4338 CB, 3-[5-Phenyl-2-oxo-2,3-dihydro-1H-benzo[f]-1,4-diazepine]-carboxylic acid, potassium salt], the ED50 in the data set with mice [1] is 5 mg/kg; in the data set on mice [2], over 10 mg/kg; with mice [3], over 10 mg/kg; in the data set on mice [4] it was over 10 mg/kg; with mice [5] (route not given) it was over 10 mg/kg; with mouse [7] it was 10 mg/kg. Moreover, the “Reaction / pH of aqueous solution” value in data set [9] is listed as “substantially neutral reaction”. Further, the Solubility in water result in the data set “Solubility” was “dissolves in water”.

Regarding `O=C(O)C1N=C(c2ccccc2)c2ccccc2NC1=O.[K+].[K+].[OH-].[OH-]` (stereo not drawn) [4337 CB, 2,3-Dihydro-2-oxo-5-phenyl-1H-benzo[f]-1,4-diazepine-3-carboxylic acid, monopotassium salt, monopotassium hydroxide], the ED50 in the data set on mice [1] is 5 mg/kg; in the data set on mice [2] it was over 10 mg/kg; in the data set on mice [3] it was over 10 mg/kg; in the data set with mice [4], over 10 mg/kg; in the data set with mice [5] (po), over 10 mg/kg. Besides, the “Reaction / pH of aqueous solution” value in data set [9] is “strongly alkaline in reaction”. In addition, the Solubility in water entry in the data set “Solubility” is “completely soluble in water”.

As for `O=C(O)C1N=C(c2ccccc2)c2cc(Cl)ccc2NC1=O` (stereo not drawn) [4372 CB, 7-Chloro-2,3-dihydro-2-oxo-5-phenyl-1H-benzo[f]-1,4-diazepine-3-carboxylic acid, calcium salt], the Solubility in water entry in the data set “Solubility” is “sparingly soluble in water”.

In the data set “Acute toxicity (M) LD 50” (PO), `O=C(O)C1N=C(c2ccccc2)c2cc([N+](=O)[O-])ccc2NC1=O` (stereo not drawn) [4336 CB, 3-[7-nitro-5-phenyl-2-oxo-2,3-dihydro-1H-benzo[f]-1,4-diazepine]-carboxylicacid, potassium salt] gave an LD50 of 800 mg/kg. Moreover, the ED50 stood at 0.28 mg/kg in the data set with mice [1]; 1.5 mg/kg in the data set with mice [2]; 0.31 mg/kg with mice [3]; 3 mg/kg in the data set with mice [4]; 6 mg/kg in the data set on mice [5] (po); 50 mg/kg in the data set with rat [6]. In addition, the ED50 in the data set with mouse [7] was 5 mg/kg; in the data set on mouse [10], 25 mg/kg; in the data set on cat it was 25 mg/kg; with cats, 25 mg/kg; in the data set on male rat, 10 mg/kg. The “Effect in diminishing aggressiveness” value with male rat (test for combativeness) is on record as “marked effect in diminishing aggressiveness”. Further, in [9], the “Reaction / pH of aqueous solution” value is “practically neutral solution”. Besides, in the data set on central nervous system (different tests of Table VI), the “Activity in different tests, especially as myorelaxants and anticonvulsants” value is given as “extremely active in different tests”. Further, the “Effect on the faculties of displacement” value in the data set with central nervous system (in vivo) is listed as “less effect on the faculties of displacement”. The Solubility in water result in “Solubility” is reported as “dissolves in water”.

As to `CN1C(=O)C(C(=O)O)N=C(c2ccccc2)c2cc(Cl)ccc21.[K+].[K+].[OH-].[OH-]` (stereo not drawn) [4350 CB, 7-Chloro-1-methyl-2,3-dihydro-2-oxo-5-phenyl-1H-benzo[f]-1,4-diazepine-3-carboxylic acid, monopotassium salt, monopotassium hydroxide], the ED50 in the data set with mice [1] is 5 mg/kg; in the data set on mice [2] it was over 10 mg/kg; in the data set with mice [3] it was 7.5 mg/kg; in the data set with mice [4], 20 mg/kg; with mice [5] (po) it was 10 mg/kg; in the data set on mouse [7], over 20 mg/kg. The “Reaction / pH of aqueous solution” value in [9] is listed as “strongly alkaline in reaction”. Further, the Solubility in water result in the data set “Solubility” is “very soluble in water; also recorded: completely soluble in water”.

For the compound `Cc1ccc2c(c1)C(c1ccccc1)=NC(C(=O)O)C(=O)N2.[K+].[K+].[OH-].[OH-]` (stereo not drawn) [4339 CB, 7-Methyl-2,3-dihydro-2-oxo-5-phenyl-1H-benzo[f]-1,4-diazepine-3-carboxylic acid, monopotassium salt, monopotassium hydroxide], the ED50 was over 10 mg/kg in the data set on mice [1]; over 10 mg/kg with mice [2]; over 10 mg/kg in the data set on mice [3]; over 10 mg/kg in the data set on mice [4]; 10 mg/kg with mouse [7]. In addition, the Solubility in water entry in “Solubility” is listed as “completely soluble in water”.
